Assay results: patent publication EP0350163A2, “Renin inhibitory peptides” (BEECHAM GROUP PLC, priority 1988, dated 1990)
pIC50: −log10 of the molar value. Structures can show the parent of a compound that is named as a salt.

The molecules below were run against T1, human renin (Homo sapiens, UniProt P00797) (assay: In vitro human renin inhibition (renin activity in human plasma, angiotensin I radioimmunoassay)). Conditions: human plasma from healthy volunteers; angiotensin I difference between 37° and 4° for 2 h; linear regression of at least three concentrations; read-out: IC₅₀.
T1 construct: from tissue; host or cells: human plasma from the blood of healthy volunteers
T1 sequence (P00797 67-406): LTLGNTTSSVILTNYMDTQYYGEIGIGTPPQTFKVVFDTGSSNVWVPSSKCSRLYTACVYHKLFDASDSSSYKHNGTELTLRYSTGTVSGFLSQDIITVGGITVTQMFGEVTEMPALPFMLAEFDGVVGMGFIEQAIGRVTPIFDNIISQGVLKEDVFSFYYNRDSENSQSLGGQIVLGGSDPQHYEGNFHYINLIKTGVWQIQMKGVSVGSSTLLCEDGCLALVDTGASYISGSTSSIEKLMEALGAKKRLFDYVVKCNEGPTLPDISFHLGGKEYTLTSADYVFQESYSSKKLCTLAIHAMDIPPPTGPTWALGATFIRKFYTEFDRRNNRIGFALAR
Type: biochemical
Protocol: Renin inhibitory activity was estimated as the percentage change in renin activity in human plasma in the presence and absence of compound. The source of plasma was blood taken from healthy volunteers. Renin activity was defined by the difference in angiotensin I levels between two halves of a sample, one incubated at 37^o and the other at 4^o for 2 h. Angiotensin I levels were measured using a ¹²⁵I- angiotensin I radioimmunoassay kit (NEN/DuPont, Stevenage). Results were calculated as the mean of at least two, duplicate determinations and IC₅₀ values were calculated by linear regression analysis of at least three concentrations of compound.

pIC50	Compound
8.00	CC(C)CNC(=O)C[C@H](O)[C@H](CC1CCCCC1)NC(=O)[C@H](CC(C)C)NC(=O)[C@H](Cc1ccccc1)NC(=O)CC1CS(=O)(=O)c2cc(N)ccc21 (stereo partly drawn) [Example E29, 4-(S)-((6-Amino-2,3-dihydro-1,1-dioxobenzothiophene-3-yl)acetyl-(S)-phenylalanyl-(S)-leucyl)amino-5-cyclohexyl-3-(S)-hydroxypentanoic acid isobutylamide dihydrate]
8.00	CC(C)CNC(=O)C[C@H](O)[C@H](CC1CCCCC1)NC(=O)[C@H](CC(C)C)NC(=O)[C@H](Cc1ccccc1)NC(=O)CC1CS(=O)(=O)c2ccc(CN)cc21 (stereo partly drawn) [Example E50, 4-(S)-((5-Aminomethyl-2,3-dihydro-1,1-dioxobenzothiophene-3-yl)acetyl-(S)-phenylalanyl-(S)-leucyl)amino-5-cyclohexyl-3-(S)-hydroxypentanoic acid isobutylamide]
7.30	CC(C)CNC(=O)C[C@H](O)[C@H](CC1CCCCC1)NC(=O)[C@H](CC(C)C)NC(=O)[C@H](Cc1ccccc1)NC(=O)CC1COc2ccc(NC(N)=O)cc21 (stereo partly drawn) [E 7, 4-(S)-((5-Ureido-2,3-dihydrobenzofuran-3-yl)acetyl-(S)-phenylalanyl-(S)-leucyl)amino-5-cyclohexyl-3-(S)-hydroxypentanoic acid isobutylamide dihydrate]
7.00	CC(C)CNC(=O)C[C@H](O)[C@H](CC1CCCCC1)NC(=O)[C@H](CC(C)C)NC(=O)[C@H](Cc1ccccc1)NC(=O)CC1COc2ccc(CNCC(=O)O)cc21 (stereo partly drawn) [Example E36a, 4-(S)-((5-(Carboxymethylaminomethyl)-2,3-dihydrobenzofuran-3-yl)acetyl-(S)-phenylalanyl-(S)-leucyl)amino-5-cyclohexyl-3-(S)-hydroxvoentanoic acid isobutylamide]
7.40	CC(C)CNC(=O)C[C@H](O)[C@H](CC1CCCCC1)NC(=O)[C@H](Cc1c[nH]cn1)NC(=O)[C@H](Cc1ccccc1)NC(=O)CC1COc2ccc([N+](=O)[O-])cc21 (stereo partly drawn) [Example E39, 4-(S)-((5-Nitro-2,3-dihydrobenzofuran-3-yl)acetyl-(S)-phenylalanyl-(S)-histidyl)amino-5-cyclohexyl-3-(S)-hydroxypentanoic acid isobutylamide hydrate]
7.22	CC(C)CNC(=O)C[C@H](O)[C@H](CC1CCCCC1)NC(=O)[C@H](CC(C)C)NC(=O)[C@H](Cc1ccccc1)NC(=O)CC1COc2ccc(S(=O)(=O)CC(=O)O)cc21 (stereo partly drawn) [Example E56, 4-(S)-((5-(Carboxymethanesulphonyl)-2,3-dihydrobenzofuran-3-yl)acetyl-(S)-phenylalanyl-(S)-leucyl)amino-5-cyclohexyl-3-(S)-hydroxypentanoic acid isobutylamide, sodium salt]
8.10	CC(C)CNC(=O)C[C@H](O)[C@H](CC1CCCCC1)NC(=O)[C@H](CC(C)C)NC(=O)[C@H](Cc1ccccc1)NC(=O)CC1CS(=O)(=O)c2cc(CN)ccc21 (stereo partly drawn) [Example E31a, 4-(S)-((6-Aminomethyl-2,3-dihydro-1,1-dioxobenzothiophene-3-yl)acetyl-(S)-phenylalanyl-(S)-leucyl)amino-5-cyclohexyl-3-(S)-hydroxypentanoic acid isobutylamide dihydrate]
8.05	CC(C)CNC(=O)C[C@H](O)[C@H](CC1CCCCC1)NC(=O)[C@H](CC(C)C)NC(=O)[C@H](Cc1ccccc1)NC(=O)CC1CS(=O)(=O)c2ccc(C#N)cc21 (stereo partly drawn) [Example E45, 4-(S)-((5-Cyano-2,3-dihydro-1,1-dioxobenzothiophene-3-yl)acetyl-(S)-phenylalanyl-(S)-leucyl)amino-5-cyclohexyl-3-(S)-hydroxypentanoic acid isobutylamide]
7.52	CC(C)CNC(=O)C[C@H](O)[C@H](CC1CCCCC1)NC(=O)[C@H](CC(C)C)NC(=O)[C@H](Cc1ccccc1)NC(=O)CC1COc2ccc(CN)cc21 (stereo partly drawn) [Example E20a, 4-(S)-((5-(Aminomethyl)-2,3-dihydrobenzofuran-3-yl)acetyl-(S)-phenylalanyl-(S)-leucyl)amino-5-cyclohexyl-3-(S)-hydroxypentanoic acid isobutylamide hemi(trichloromethanate)]
8.00	CC(C)CNC(=O)C[C@H](O)[C@H](CC1CCCCC1)NC(=O)[C@H](CC(C)C)NC(=O)[C@H](Cc1ccccc1)NC(=O)CC1CS(=O)(=O)c2ccccc21 (stereo partly drawn) [Example E12, 4-(S)-((2,3-Dihydro-1,1-dioxobenzothiophene-3-yl)acetyl-(S)-phenylalanyl-(S)-leucyl)amino-5-cyclohexyl-3-(S)-hydroxypentanoic acid isobutylamide]
6.33	CC(C)CNC(=O)C[C@H](O)[C@H](CC1CCCCC1)NC(=O)[C@H](Cc1cnc[nH]1)NC(=O)[C@H](Cc1ccccc1)NC(=O)CC1COc2ccc(C(=O)OCc3ccccc3)cc21 (stereo partly drawn) [Example E23, 4-(S)-((5-Benzyloxycarbonyl)-2,3-dihydrobenzofuran-3-yl)acetyl-(S)-phenylalanyl-(S)-histidyl)amino-5-cyclohexyl-3-(S)-hydroxypentanoic acid isobutylamide hemihydrate]
7.30	CNS(=O)(=O)c1ccc2c(c1)C(CC(=O)N[C@@H](Cc1ccccc1)C(=O)N[C@@H](CC(C)C)C(=O)N[C@@H](CC1CCCCC1)[C@@H](O)CC(=O)NCC(C)C)CO2 (stereo partly drawn) [E 9, 4 (S)-((5-(Methylaminosulphonyl)-2,3-dihydrobenzofuran-3-yl)acetyl-(S)-phenylalanyl-(S)-leucyl)amino-5-cyclohexyl-3-(S)-hydroxypentanoic acid isobutylamide]

Compound	pIC50
COc1cccc2c1OCC2CC(=O)N[C@@H](Cc1ccccc1)C(=O)N[C@@H](CC(C)C)C(=O)N[C@@H](CC1CCCCC1)[C@@H](O)CC(=O)NCC(C)C (stereo partly drawn) [E 3, 4-(S)-((7-Methoxy-2,3-dihydrobenzofuran-3-yl)acetyl-(S)-phenylalanyl-(S)-leucyl)amino-5-cyclohexyl-3-(S)-hydroxypentanoic acid isobutylamide hemihydrate]	7.30
CC(C)CNC(=O)C[C@H](O)[C@H](CC1CCCCC1)NC(=O)[C@H](CC(C)C)NC(=O)[C@H](Cc1ccccc1)NC(=O)CC1COc2ccc(S(=O)(=O)CC(=O)OC(C)(C)C)cc21 (stereo partly drawn) [Example E43, 4-(S)-((5-(tert-Butoxycarbonylmethanesulphonyl)-2,3-dihydrobenzofuran-3-yl)acetyl)-(S)-phenylalanyl-(S)-leucyl)amino-5-cyclohexyl-3-(S)-hydroxypentanoic acid isobutylamide hemihydrate]	8.10
CC(C)CNC(=O)C[C@H](O)[C@H](CC1CCCCC1)NC(=O)[C@H](Cc1cnc[nH]1)NC(=O)[C@H](Cc1ccccc1)NC(=O)CC1CS(=O)(=O)c2cc(CN)ccc21 (stereo partly drawn) [Example E60, 4-(S)-((6-Aminomethyl-2,3-dihydro-1,1-dioxobenzothiophene-3-yl)acetyl-(S)-phenylalanyl-(S)-histidyl)amino-5-cyclohexyl-3-(S)-hydroxypentanoic acid isobutylamide bis(trifluoroacetate) sesquihydrate]	7.40
CC(C)CNC(=O)C[C@H](O)[C@H](CC1CCCCC1)NC(=O)[C@H](CC(C)C)NC(=O)[C@H](Cc1ccccc1)NC(=O)CC1COc2ccc(N)cc21 (stereo partly drawn) [E 6, 4-(S)-((5-Amino-2,3-dihydrobenzofuran-3-yl)acetyl-(S)-phenylalanyl-(S)-leucyl)amino-5-cyclohexyl-3-(S)-hydroxypentanoic acid isobutylamide trifluoroacetate hemihydrate]	7.52
CC(C)CNC(=O)C[C@H](O)[C@H](CC1CCCCC1)NC(=O)[C@H](CC(C)C)NC(=O)[C@H](Cc1ccccc1)NC(=O)CC1COc2ccc([N+](=O)[O-])cc21 (stereo partly drawn) [E 5, 4-(S)-((5-Nitro-2,3-dihydrobenzofuran-3-yl)acetyl-(S)-phenylalanyl-(S)-leucyl)amino-5-cyclohexyl-3-(S)-hydroxypentanoic acid isobutylamide hemihydrate]	7.22
